Values joined by “and” are separate entries in the source; they are usually repeats but may differ in a detail not shown here. Equal entries are not always repeated.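 In this assay, cells in 96-well plates receive the compound at five concentrations for 48 hours. Endpoints are linearly interpolated between the surrounding concentrations. Here, GI50 denotes the concentration required for 50% inhibition of growth. TGI: concentration producing complete growth inhibition.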
Legend:
Assay in all cases: NCI-60 cell line screen, 48 h
SK-MEL-2 melanoma = tested on: SK-MEL-2 melanoma
NCI/ADR-RES ovarian = tested on: NCI/ADR-RES ovarian
OVCAR-4 ovarian = tested on: OVCAR-4 ovarian
DU-145 prostate = tested on: DU-145 prostate
HCT-116 colon = tested on: HCT-116 colon
T-47D breast = tested on: T-47D breast
HL-60(TB) leukemia = tested on: HL-60(TB) leukemia
SK-OV-3 ovarian = tested on: SK-OV-3 ovarian
SNB-19 CNS = tested on: SNB-19 CNS
EKVX NSCLC = tested on: EKVX NSCLC

SMILES	GI50 (SK-MEL-2 melanoma) [µM]	TGI (SK-MEL-2 melanoma)	GI50 (NCI/ADR-RES ovarian) [µM]	TGI (NCI/ADR-RES ovarian)	GI50 (OVCAR-4 ovarian) [µM]	TGI (OVCAR-4 ovarian)	GI50 (DU-145 prostate) [µM]	TGI (DU-145 prostate)	GI50 (HCT-116 colon)	TGI (HCT-116 colon)	GI50 (T-47D breast) [µM]	TGI (T-47D breast)	GI50 (HL-60(TB) leukemia)	TGI (HL-60(TB) leukemia)	GI50 (SK-OV-3 ovarian) [µM]	TGI (SK-OV-3 ovarian)	GI50 (SNB-19 CNS) [µM]	TGI (SNB-19 CNS)	GI50 (EKVX NSCLC)	TGI (EKVX NSCLC)
C[C@@H]1O[C@@H](O[C@H]2C[C@@H](O)[C@]3(CO)C4C(CC[C@]3(O)C2)[C@@]2(O)CC[C@H](C3=CC(=O)OC3)[C@@]2(C)C[C@H]4O)[C@H](O)[C@H](O)[C@H]1O (some centres not stated)	0.0655	0.17 µM	0.0154	0.0452 µM	0.0116	0.0308 µM	0.0104	0.02 µM	0.0174 µM	0.056 µM	0.0215	0.0847 µM	0.013 µM	0.0318 µM	0.0203	0.0731 µM	0.0605	0.125 µM	0.0151 µM	0.0518 µM
COc1ccc(C2C3=C(NC(=O)C2C#N)c2ccc4ccccc4c2OCC3)cc1 (configuration not stated)	> 100	> 100 µM	31.3	> 100 µM	> 100	> 100 µM	31.4	> 100 µM	35.8 µM	> 100 µM	> 100	> 100 µM	65.8 µM	> 100 µM	20	47.1 µM	58.8	> 100 µM	15.8 µM	50.1 µM
COc1ccc(-c2cc3cccc(OC)c3c(=O)o2)cc1OC	> 100	> 100 µM	40.3	> 100 µM	> 100	> 100 µM	0.795	> 100 µM	29.6 µM	> 100 µM	28.3	> 100 µM	76.2 µM	> 100 µM	46.2	> 100 µM	41.3	> 100 µM	0.83 µM	39.5 µM
O=C(CC12CC3CC(CC(C3)C1)C2)NCCOCCOCCNC(=O)c1cc2c(o1)C(=O)c1ccccc1C2=O	1.6	3.86 µM	2.07	5.87 µM	0.839	2.08 µM	0.225	0.457 µM	1.58 µM	4.96 µM	1.8	5.06 µM	1.22 µM	4.61 µM	2.19	4.71 µM	0.841	3.11 µM	1.84 µM	3.53 µM
COc1ccc2c(c1)O/C(=C\c1cccc(OCC(=O)Nc3nc4ccccc4s3)c1)C2=O	11.5	33.3 µM	47	> 100 µM	22.3	> 100 µM	3.57	21.9 µM	24.1 µM	> 100 µM	9.66	> 100 µM	4.68 µM	> 63 µM	> 100	> 100 µM	> 57.8	> 100 µM	29 µM	> 100 µM
CS(=O)(=O)c1nccc(-c2c(-c3cccc(OCc4ccc(F)cc4)c3)nc3sccn23)n1	> 100	> 100 µM	43.2	> 100 µM	11.4	> 100 µM	1.92	3.41 µM	5.65 µM	> 100 µM	9.52	> 100 µM	3.43 µM	> 29.3 µM	47.4	> 100 µM	26	> 96.7 µM	26.4 µM	> 100 µM
O=C(NO)c1ccc(C(=O)NO)cc1				26.2 µM		> 100 µM		> 100 µM		> 100 µM		> 100 µM		> 100 µM		87.2 µM		> 100 µM		> 100 µM
COC1/C=C/O[C@@]2(C)Oc3c(C)c(O)c4c(O)c(cc(O)c4c3C2=O)NC(=O)/C(C)=C\C=C\[C@H](C)C(O)[C@@H](C)[C@@H](O)[C@@H](C)[C@H](OC(C)=O)[C@@H]1C (some centres not stated)		30 µM and 45.2 µM	24	59.7 µM and 86 µM	16	30.6 µM and 28.3 µM	12.3	26.8 µM and 54.5 µM	12.2 µM and 12.5 µM	25.4 µM and 26.1 µM	8.63	23.2 µM and 48.5 µM	6.07 µM and 5.19 µM	27.4 µM and 18 µM		211 µM	51.8	220 µM	14.2 µM and 58.6 µM	27.8 µM and 136 µM
COc1ccc2c(c1)Oc1nc(N)c(C#N)c(N)c1C2Sc1ccc(SC)cc1 (configuration not stated)	1.7	3.28 µM	2.42	6.05 µM	1.64	3.07 µM	1.79	3.19 µM	1.76 µM	3.24 µM	1.94	4.91 µM	1.99 µM	5.49 µM	1.77	3.16 µM	1.77	3.18 µM	1.66 µM	3.09 µM
Cc1oc2ccccc2c(=O)c1Cn1nnc2ccccc21		> 100 µM		> 100 µM		> 100 µM		> 100 µM		> 100 µM		44.2 µM		> 100 µM		> 100 µM		> 100 µM		> 100 µM
O=S(=O)(c1cccc(C(F)(F)F)c1)N1c2ccccc2-n2cccc2C1c1cccnc1 (configuration not stated)		> 52.2 µM		66.2 µM		> 48.4 µM		> 55.2 µM		> 52 µM		> 70.4 µM		28.3 µM		> 78.9 µM		> 72.9 µM		> 100 µM
Cc1c(Cl)cccc1NC(=O)CC1Sc2ccccc2NC1=O (configuration not stated)		59.6 µM and 41.9 µM		58.9 µM		40 µM and 40.4 µM		> 100 µM		46.2 µM and 31.4 µM		86.5 µM		54.2 µM and 49.3 µM		33 µM and 39.3 µM		52.8 µM and 42.5 µM		> 100 µM
COc1cc(OC)c(-c2cc(=O)c3c(OC)c(OC)c(OC)c(OC)c3o2)cc1OC		> 100 µM		> 100 µM		> 100 µM		> 100 µM		> 100 µM		> 100 µM		> 64.6 µM		> 100 µM		> 100 µM		> 100 µM
O=C1C=C(SCCO)C(=O)c2ccccc21	1.94	3.91 µM	2.16	5.82 µM	1.42	2.75 µM	1.71	3.09 µM	1.8 µM	3.68 µM	1.47	4.1 µM	0.451 µM	2.46 µM	3.97	16.3 µM	1.9	4.18 µM	1.46 µM	3.33 µM
O=C(NNc1nc2cc(F)ccc2n2c(CN3CCOCC3)ccc12)c1ccccc1	1.04	8.06 µM	0.211	2.37 µM	0.152	1.39 µM	0.358	4.78 µM	0.139 µM	1.38 µM	0.36	2.24 µM	0.25 µM	0.931 µM	0.405	3.39 µM	0.311	2.27 µM	0.142 µM	1.7 µM
C=CC1CC12C(=O)C1OC2(C)C2C(=O)c3ccccc3C(=O)C12 (configuration not stated)	> 86	> 100 µM	> 43.6	> 70.9 µM	31.5	> 100 µM	72.7	> 100 µM	> 100 µM	> 100 µM	51.4	> 100 µM	0.691 µM	2.59 µM	> 93.3	> 100 µM	> 47.7	> 84.7 µM	> 100 µM	> 100 µM
O=C1C(=O)c2ccc(Br)cc2-c2cc(Br)ccc21	10.4	> 100 µM	1.59	8.12 µM	0.274	0.696 µM	7.29	> 100 µM	0.587 µM	1.43 µM	1.41	3.92 µM	0.607 µM	1.71 µM	29.1	> 87.5 µM	11	> 100 µM	> 100 µM	> 100 µM
Cc1nc2sc(C(=O)Nc3cccc4ccccc34)c(N)c2cc1C(C)O (configuration not stated)	0.219	> 50 µM	0.17		1.51	> 50 µM	0.247	> 50 µM	0.233 µM	> 50 µM	0.183	> 50 µM	0.124 µM	0.355 µM	0.196	> 50 µM	0.244	> 50 µM	0.446 µM	> 50 µM
Cc1ccc(NS(=O)(=O)c2ccc(-c3cnc(C4CC4)o3)cc2)cc1	5.06	18.8 µM	1.61	7.79 µM	3.87	17.6 µM	3.99	16.5 µM	2.49 µM	15.2 µM	2.68	11 µM	2.47 µM	9.71 µM	4.81	19.6 µM	3.88	16.6 µM	4.24 µM	19.9 µM
Brc1c[n+](Cc2ccc3ccccc3c2)cn1Cc1ccc2ccccc2c1	1.81	3.9 µM	> 100	> 100 µM	1.32	2.76 µM	2.54	7.75 µM	1.21 µM	2.49 µM	2.14	7.2 µM	1.15 µM	3.68 µM	2.56	11.4 µM	1.41	2.75 µM	9.93 µM	25 µM
CN(C(=O)c1ccc(F)cc1C(F)(F)F)C1CCN(c2nnc(-c3ccnn3C)c3ccccc23)CC1	29.9	> 100 µM	30.9	> 100 µM	20.9	> 100 µM	75.4	> 100 µM	40.8 µM	> 100 µM	10.6	99.4 µM	27.3 µM	> 84.1 µM	> 77.9	> 100 µM	51.7	> 100 µM	19.4 µM	> 100 µM
COc1ccc(C(CC(=O)c2ccccc2)C(C(=O)c2ccccc2)C(c2ccc(OC)cc2)C2C(=O)NC(=O)NC2=O)cc1 (configuration not stated)	38.5	> 100 µM	22.2	63.7 µM	26	> 100 µM	19.2	70.5 µM	14.2 µM	35.9 µM	21.6	> 100 µM	41.2 µM	> 100 µM	> 100	> 100 µM	13.7	> 100 µM	12.5 µM	> 100 µM
CC(C)C1CN1CC(O)Cn1ccnc1[N+](=O)[O-] (configuration not stated)		> 100 µM		> 100 µM		> 100 µM		> 100 µM		> 100 µM		> 100 µM				> 100 µM		> 100 µM		> 100 µM
O=S(=O)(Nc1ccc(-c2nc(-c3cccc(OCCN4CCOCC4)c3)c(-c3ccnc(Br)c3)[nH]2)cc1)c1ccccc1	2.59	6.87 µM	4.18	> 100 µM	4.16	> 100 µM	5.64	> 100 µM	3.09 µM	> 100 µM	2.86	28.6 µM			3.81	> 100 µM	6.07	> 100 µM	3.4 µM	> 100 µM
Nc1ccccc1C#C/C=C\C#Cc1ccc(F)cc1F	23	58.1 µM	6.22	21.1 µM	37.1	> 100 µM	12.5	33.8 µM	15.4 µM	31.4 µM	26	> 100 µM	21.8 µM	> 100 µM	27.4	66.7 µM			19.4 µM	57.8 µM
CN(C(=O)C1CCCCC1)c1ccccc1I(=O)=O	> 100	> 100 µM	35.9	> 100 µM	33.2	> 100 µM	55.9	> 100 µM			16.4	44.2 µM	13.5 µM	36.8 µM	32.4	> 100 µM	40.3	> 100 µM	43.4 µM	> 100 µM
COc1ccc(-c2cc3c4c(nc5ccccc5c4c2)CC(c2cc(OC)c(OC)c(OC)c2)O3)cc1 (configuration not stated)	3.44	14.9 µM	3.03	47.3 µM			2.96	> 100 µM	1.31 µM	4.15 µM	2.34	7.53 µM	> 100 µM	> 100 µM	4.08	17.2 µM	3.3	12.8 µM	5.01 µM	> 100 µM
